Test results: DBAASP
≈ marks a conversion by molar mass, not a printed value.

Tests used:
Assay in all cases: ≥ marks a high value that may be exact or a test limit, other limits are often not marked, values filed in µg/mL are converted to µM
[1] = tested on: Enterococcus faecalis ATCC 51299
[2] = tested on: Enterococcus faecium ATCC 19434
[3] = tested on: Escherichia coli ATCC 35218
[4] = tested on: Klebsiella pneumoniae ATCC 49472
[5] = tested on: Klebsiella pneumoniae ATCC BAA-2814
[6] = tested on: Pseudomonas aeruginosa ATCC 27853
[7] = tested on: Salmonella enterica subsp. enterica serovar Typhimurium ATCC 14028
[8] = tested on: Staphylococcus aureus ATCC 12600
[9] = tested on: Staphylococcus aureus ATCC BAA-2312
[10] = tested on: Achromobacter xylosoxidans
Candida albicans = tested on: Candida albicans
Escherichia coli UB1005 = tested on: Escherichia coli UB1005
[11] = tested on: Pseudomonas aeruginosa M1251
[12] = tested on: Pseudomonas aeruginosa M1426
[13] = tested on: Pseudomonas aeruginosa M76
[14] = tested on: Pseudomonas aeruginosa M917
[15] = tested on: Pseudomonas aeruginosa PAO1
[16] = tested on: Pseudomonas aeruginosa R70
Pseudomonas fluorescens = tested on: Pseudomonas fluorescens
Ralstonia pickettii = tested on: Ralstonia pickettii
[17] = tested on: Salmonella enterica serovar Typhimurium
Staphylococcus aureus = tested on: Staphylococcus aureus
[18] = tested on: Stenotrophomonas maltophilia
Escherichia coli 078 = tested on: Escherichia coli 078
Escherichia coli 987P = tested on: Escherichia coli 987P
[19] = tested on: Escherichia coli ATCC 25922
Escherichia coli K88 = tested on: Escherichia coli K88
Escherichia coli K99 = tested on: Escherichia coli K99
[20] = tested on: Lacticaseibacillus rhamnosus 1.0385
[21] = tested on: Lacticaseibacillus rhamnosus 1.0386
[22] = tested on: Lacticaseibacillus rhamnosus 1.0911
[23] = tested on: Lacticaseibacillus rhamnosus 1.9205
[24] = tested on: Lacticaseibacillus rhamnosus 7469
[25] = tested on: Lactiplantibacillus plantarum 8014
[26] = tested on: Salmonella enterica subsp. enterica serovar Typhimurium C77-31
[27] = tested on: Staphylococcus aureus ATCC 25923
[28] = tested on: Staphylococcus aureus ATCC 29213
[29] = tested on: Staphylococcus epidermidis ATCC 12228
[30] = tested on: Streptococcus agalactiae ATCC 13813
Escherichia coli = tested on: Escherichia coli
[31] = tested on: Staphylococcus aureus ATCC BAA-1683
[32] = tested on: Candida albicans ATCC 90029
Candida albicans CA1 = tested on: Candida albicans CA1
[33] = tested on: Candida krusei ATCC 40147
[34] = tested on: Candida parapsilosis ATCC 90018
[35] = tested on: Candida tropicalis ATCC 750

**Q.** Which results are given for CC[C@H](C)[C@H](NC(=O)[C@H](CC(=O)O)NC(=O)[C@@H](NC(=O)[C@@H](NC(=O)[C@H](C)NC(=O)CN)C(C)C)C(C)C)C(=O)N[C@@H](CC(C)C)C(=O)N[C@@H](CCCCN)C(=O)NCC(=O)N[C@@H](C)C(=O)NCC(=O)N[C@@H](CCCCN)C(=O)N[C@@H](CC(N)=O)C(=O)N[C@@H](CC(C)C)C(=O)N[C@@H](CC(C)C)C(=O)N[C@@H](CO)C(=O)N[C@@H](CC(C)C)C(=O)N[C@@H](C)C(=O)N[C@@H](CC(C)C)C(=O)N[C@@H](CC(N)=O)C(=O)N[C@@H](CCCCN)C(=O)N[C@@H](CC(C)C)C(=O)N[C@@H](CO)C(=O)N[C@@H](CCC(=O)O)C(=O)N[C@@H](CCCCN)C(=O)N[C@H](C(N)=O)C(C)C [GAVVDILKGAGKNLLSLALNKLSEKV]?
**A.** MIC [1]: ≥ 250 µM; MIC [2]: ≥ 250 µM; MIC [3]: ≥ 62.5 µM; MIC [4]: ≥ 125 µM; MIC [5]: ≥ 125 µM; MIC [6]: > 125 µM; MIC [7]: 250 µM (≈ 663 µg/mL); MIC [8]: ≥ 250 µM; MIC [9]: ≥ 250 µM

**Q.** Which results are given for CC[C@H](C)[C@H](NC(=O)[C@H](Cc1ccccc1)NC(=O)[C@H](CO)NC(=O)[C@H](CCCCN)NC(=O)[C@H](Cc1c[nH]c2ccccc12)NC(=O)[C@@H](N)CCCCN)C(=O)N[C@@H](CCCCN)C(=O)N[C@@H](CCCCN)C(=O)N[C@@H](CC(C)C)C(=O)N[C@H](C(=O)N[C@@H](CCCCN)C(=O)N[C@@H](C)C(=O)N[C@@H](C)C(=O)N[C@@H](CCCCN)C(=O)N[C@@H](CCCCN)C(=O)N[C@H](C(=O)N[C@H](C(=O)N[C@H](C(=O)N[C@H](C(=O)N[C@@H](C)C(=O)N[C@@H](CCCCN)C(=O)N[C@@H](CCCCN)C(=O)N1CCC[C@H]1C(=O)N[C@@H](CC(C)C)C(=O)N[C@H](C(=O)N[C@H](C(N)=O)C(C)C)[C@@H](C)CC)[C@@H](C)O)[C@@H](C)O)C(C)C)C(C)C)[C@@H](C)O [KWKSFIKKLTKAAKKVVTTAKKPLIV]?
**A.** MIC [10]: 1.35 µM (≈ 4 µg/mL); MIC (Candida albicans): > 43.3 µM; MIC (Escherichia coli UB1005): 0.677 µM (≈ 2 µg/mL); MIC [11]: 0.677 µM (≈ 2 µg/mL); MIC [12]: 1.35 µM (≈ 4 µg/mL); MIC [13]: 1.35 µM (≈ 4 µg/mL); MIC [14]: 10.8 µM (≈ 32 µg/mL); MIC [15]: 1.35 µM (≈ 4 µg/mL); MIC [16]: 0.677 µM (≈ 2 µg/mL); MIC (Pseudomonas fluorescens): 0.677 µM (≈ 2 µg/mL); MIC (Ralstonia pickettii): 0.677 µM (≈ 2 µg/mL); MIC [17]: 1.35 µM (≈ 4 µg/mL); MIC (Staphylococcus aureus): > 43.3 µM; MIC [18]: 0.338 µM (≈ 1 µg/mL)

**Q.** Which results are given for CC(C)C[C@H](NC(=O)[C@H](CCCN=C(N)N)NC(=O)[C@@H](NC(=O)[C@H](CCCN=C(N)N)NC(=O)[C@@H]1CCCN1C(=O)[C@H](CCCN=C(N)N)NC(=O)[C@H](CCCCN)NC(=O)[C@@H](N)CCC(N)=O)C(C)C)C(=O)N[C@@H](CO)C(=O)N[C@@H](C)C(=O)O [QKRPRVRLSA]?
**A.** MIC (Escherichia coli 078): ≥ 128 µM; MIC (Escherichia coli 987P): ≥ 128 µM; MIC [19]: 64 µM (≈ 77.5 µg/mL); MIC (Escherichia coli K88): ≥ 64 µM; MIC (Escherichia coli K99): ≥ 64 µM; MIC (Escherichia coli UB1005): ≥ 128 µM; MIC [20]: ≥ 128 µM; MIC [21]: ≥ 128 µM; MIC [22]: ≥ 128 µM; MIC [23]: ≥ 128 µM; MIC [24]: ≥ 128 µM; MIC [25]: ≥ 128 µM; MIC [6]: > 128 µM; MIC [26]: ≥ 128 µM; MIC [27]: > 128 µM; MIC [28]: > 128 µM; MIC [29]: > 128 µM; MIC [30]: ≥ 128 µM

**Q.** For CC(C)C[C@H](NC(=O)[C@H](CC(C)C)NC(=O)[C@H](CCCN=C(N)N)NC(=O)[C@H](CCCCN)NC(=O)[C@H](CCCCN)NC(=O)[C@@H](N)CCC(=O)O)C(=O)N[C@@H](CCCCN)C(=O)N[C@@H](Cc1c[nH]c2ccccc12)C(=O)N[C@@H](Cc1c[nH]c2ccccc12)C(=O)N[C@@H](CCCN=C(N)N)C(N)=O [EKKRLLKWWR], which MIC (Escherichia coli) is on record?
**A.** The MIC was 347 µM (≈ 500 µg/mL).

**Q.** And the MIC [27]?
**A.** The MIC was 86.6 µM (≈ 125 µg/mL).

**Q.** What about the MIC [31] of the same molecule?
**A.** The MIC was at least 86.6 µM.

**Q.** Which results are given for CC[C@H](C)[C@H](NC(=O)[C@H](C)NC(=O)[C@H](CCCCN)NC(=O)[C@H](CC(C)C)NC(=O)[C@H](C)NC(=O)[C@H](Cc1c[nH]c2ccccc12)NC(=O)[C@H](CCCCN)NC(=O)[C@H](C)NC(=O)[C@H](CC(C)C)NC(=O)[C@@H](NC(=O)CNC(=O)[C@H](Cc1c[nH]c2ccccc12)NC(=O)[C@@H](N)Cc1ccccc1)[C@@H](C)O)C(=O)N1CCC[C@H]1C(=O)N[C@@H](C)C(=O)N[C@@H](C)C(=O)N[C@@H](CCSC)C(=O)NCC(=O)N[C@@H](CCSC)C(=O)N[C@@H](CCCCN)C(=O)N[C@@H](CCC(N)=O)C(=O)N[C@@H](CC(N)=O)C(=O)N[C@@H](CCCCN)C(=O)O [FWGTLAKWALKAIPAAMGMKQNK]?
**A.** MIC [32]: 10 µM (≈ 25.6 µg/mL); MIC (Candida albicans CA1): 10 µM (≈ 25.6 µg/mL); MIC [33]: 5 µM (≈ 12.8 µg/mL); MIC [34]: 10 µM (≈ 25.6 µg/mL); MIC [35]: 10 µM (≈ 25.6 µg/mL)
